Read-outs that look alike come from different tables or passages of the source.
Test: Plasma pharmacokinetics (LC-MS/MS)
Format: in vivo, human
Conditions: for Cmax / AUC(0-t) / half-life / Tmax: human, plasma, oral; for half-life: read-out: t½ (converted); for Tmax: read-out: Tmax, median
Experimental: Peripheral blood was collected serially to quantify plasma levels of sapanisertib for PK analysis via validated liquid chromatography tandem mass spectrometry with an assay range of 1–1000 ng/mL (MicroConstants, San Diego, CA), during both dose-escalation and expansion phases. Blood samples were collected before each dose and 0.5, 1, 2, 4, 8 and 24 h after dosing on cycle 1, day 1 and cycle 2, day 1, in the dose-escalation phase. In the expansion phase, samples were collected predose and 2, 4 and 6 h postdose on cycle 1, day 1, and then predose and 2 h postdose on day 8, 15 or 22 of cycle 1.

[1] = 6 mg, cycle 2, day 1, QDx3dQW 6 mg
[2] = 7 mg, cycle 2, day 1, QDx5dQW 7 mg

Structure (SMILES): CC(C)n1nc(-c2ccc3oc(N)nc3c2)c2c(N)ncnc21 [Sapanisertib]
- Plasma accumulation with repeat dosing (any of the schedules): did not accumulate in plasma to any appreciable extent
- Tmax, median (cycle 1, day 1, 2 mg): 2.0 h
- Tmax, median (cycle 1, day 1, 4 mg): 2.0 h
- AUC0–last [%CV] (cycle 1, day 1, 6 mg): 124.3 (NA) ng*h/mL
- t½ (cycle 1, day 1, 6 mg): 6.8 h
- Tmax, median (cycle 1, day 1, 7 mg): 1.5 h
- Tmax, median (cycle 1, day 1, 9 mg): 1.1 h
- Tmax, median (cycle 1, day 1, 12 mg): 2.0 h
- Tmax, median (cycle 1, day 1, 15 mg): 2.0 h
- AUC0–last [%CV] (cycle 1, day 1, 16 mg): 124.9 (NA) ng*h/mL
- Tmax, median (cycle 2, day 1, QD 2 mg): 2.0 h
- Tmax, median (cycle 2, day 1, QD 6 mg): 2.0 h
- t½ (cycle 2, day 1, QDx3dQW 6 mg): 9.1 (NA) h
- t½ (cycle 2, day 1, QDx3dQW 16 mg): 6.6 (2.29) h
- Tmax, median (cycle 2, day 1, QDx5dQW 10 mg): 2.0 h
- Tmax, median (cycle 2, day 1, QDx5dQW 13 mg): 2.0 h
- Cmax [%CV] (cycle 2, day 1, QW 7 mg): 65.8 (NA) ng/mL
- Tmax, median (cycle 2, day 1, QW 7 mg): 1 h
- Cmax [%CV] (cycle 2, day 1, QW 10 mg): 36.2 (NA) ng/mL
- Tmax, median (cycle 2, day 1, QW 15 mg): 2.0 h
- Tmax, median (cycle 2, day 1, QW 40 mg): 2.0 h
- Cmax (2 mg, cycle 1, day 1, 2 mg): 13.5 ng/mL
- AUC(0-t) (2 mg, cycle 1, day 1, 2 mg, read-out: AUC0–last [%CV]): 65.4 ng·h/mL
- Cmax (2 mg, cycle 2, day 1, QD 2 mg): 15.6 ng/mL
- AUC(0-t) (2 mg, cycle 2, day 1, QD 2 mg, read-out: AUC0–24h [%CV]): 185 ng·h/mL
- half-life (2 mg, cycle 2, day 1, QD 2 mg): 8.1 h
- Cmax (4 mg, cycle 1, day 1, 4 mg): 19.1 ng/mL
- AUC(0-t) (4 mg, cycle 1, day 1, 4 mg, read-out: AUC0–24h [%CV]): 178 ng·h/mL
- AUC(0-t) (4 mg, cycle 1, day 1, 4 mg, read-out: AUC0–last [%CV]): 63.2 ng·h/mL
- half-life (4 mg, cycle 1, day 1, 4 mg): 7.1 h
- Cmax (4 mg, cycle 2, day 1, QD 4 mg): 20.3 ng/mL
- AUC(0-t) (4 mg, cycle 2, day 1, QD 4 mg, read-out: AUC0–24h [%CV]): 281 ng·h/mL
- AUC(0-t) (4 mg, cycle 2, day 1, QD 4 mg, read-out: AUC0–last [%CV]): 61.9 ng·h/mL
- Tmax (4 mg, cycle 2, day 1, QD 4 mg): 3.8 h
- half-life (4 mg, cycle 2, day 1, QD 4 mg): 10.3 h
- Cmax (6 mg, cycle 1, day 1, 6 mg): 50.8 ng/mL
- AUC(0-t) (6 mg, cycle 1, day 1, 6 mg, read-out: AUC0–24h [%CV]): 354 ng·h/mL
- Cmax (6 mg, cycle 2, day 1, QD 6 mg): 36.9 ng/mL
- AUC(0-t) (6 mg, cycle 2, day 1, QD 6 mg, read-out: AUC0–24h [%CV]): 327 ng·h/mL
- half-life (6 mg, cycle 2, day 1, QD 6 mg): 7.3 h
- Cmax [1]: 59.2 ng/mL
- AUC(0-t) (6 mg, cycle 2, day 1, QDx3dQW 6 mg, read-out: AUC0–24h [%CV]): 777 ng·h/mL
- Tmax [1]: 4 h
- Cmax (7 mg, cycle 1, day 1, 7 mg): 46.7 ng/mL
- AUC(0-t) (7 mg, cycle 1, day 1, 7 mg, read-out: AUC0–24h [%CV]): 327 ng·h/mL
- half-life (7 mg, cycle 1, day 1, 7 mg): 6.9 h
- Cmax (7 mg, cycle 2, day 1, QD 7 mg): 51.3 ng/mL
- AUC(0-t) (7 mg, cycle 2, day 1, QD 7 mg, read-out: AUC0–24h [%CV]): 351 ng·h/mL
- Tmax (7 mg, cycle 2, day 1, QD 7 mg): 4 h
- half-life (7 mg, cycle 2, day 1, QD 7 mg): 5.63 h
- Cmax [2]: 49.7 ng/mL
- AUC(0-t) (7 mg, cycle 2, day 1, QDx5dQW 7 mg, read-out: AUC0–24h [%CV]): 362 ng·h/mL
- half-life [2]: 6.7 h
- AUC(0-t) (7 mg, cycle 2, day 1, QW 7 mg, read-out: AUC0–24h [%CV]): 351 ng·h/mL
- half-life (7 mg, cycle 2, day 1, QW 7 mg): 5.6 h
- Cmax (9 mg, cycle 1, day 1, 9 mg): 75.9 ng/mL
- AUC(0-t) (9 mg, cycle 1, day 1, 9 mg, read-out: AUC0–24h [%CV]): 596 ng·h/mL
- half-life (9 mg, cycle 1, day 1, 9 mg): 7.5 h
- Cmax (9 mg, cycle 2, day 1, QDx3dQW 9 mg): 83.1 ng/mL

Source: article PMC7686313, “Phase 1 study of mTORC1/2 inhibitor sapanisertib (TAK-228) in advanced solid tumours, with an expansion phase in renal, endometrial or bladder cancer” (British Journal of Cancer, 2020)
